# How the values were obtained:
# in vivo [1] = settings: cynomolgus monkey, po, 5 mg/kg
# [2] = Oral bioavailability in Balb/c mouse at 10 mg/kg by UHPLC and ESI mass spectrometry; type: ADME, organism-based; settings: in vivo
# [3] = Chromatographic hydrophobicity index, log D of the compound at pH 7.4 by HPLC method; type: physicochemical; settings: buffer
# hERG (KCNH2) = hERG (KCNH2) (Homo sapiens, UniProt Q12809); assay: in vitro; settings: CHO-K1 cells expressing human ERG
# MDA-MB-231 = assay: cells; settings: Homo sapiens, MDA-MB-231, 72 h
# CYP3A4 = CYP3A4 (Homo sapiens, UniProt P08684); assay: in vitro; settings: human CYP3A4 supersomes
# Chain of CYP3A4 (P08684 whole entry): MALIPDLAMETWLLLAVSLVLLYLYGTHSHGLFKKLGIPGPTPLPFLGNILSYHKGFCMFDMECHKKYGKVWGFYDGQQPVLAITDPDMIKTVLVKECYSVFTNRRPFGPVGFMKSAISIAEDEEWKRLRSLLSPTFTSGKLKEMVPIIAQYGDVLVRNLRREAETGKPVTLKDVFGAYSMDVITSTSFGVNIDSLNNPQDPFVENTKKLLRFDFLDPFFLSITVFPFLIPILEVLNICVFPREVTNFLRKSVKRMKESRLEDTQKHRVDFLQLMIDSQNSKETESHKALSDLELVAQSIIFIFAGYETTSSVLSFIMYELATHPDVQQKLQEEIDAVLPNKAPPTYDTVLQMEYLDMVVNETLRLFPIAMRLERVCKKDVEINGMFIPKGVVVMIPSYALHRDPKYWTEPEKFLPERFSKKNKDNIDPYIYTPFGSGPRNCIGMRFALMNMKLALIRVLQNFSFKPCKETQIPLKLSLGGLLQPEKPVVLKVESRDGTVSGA
# [4] = Drug level in tumor of human MDA-MB-231 cells xenografted Balb/c SCID mouse at 20 mg/kg, po administered as single dose measured up to 72 hrs by UPLC analysis; type: ADME, organism-based, Neoplasm; settings: in vivo
# [5] = Drug level in cynomolgus monkey hepatocytes treated with 1-(6-(4-fluorobenzyl)-3,3-dimethyl-2,3-dihydro-1H-pyrrolo[3,2-b]pyridin-1-yl)-2-((2R,5R)-5-methyl-2-(((R)-3-methylmorpholino)methyl)piperazin-1-yl)ethanone at 10 uM up to 90 mins by LC-MS analysis; type: ADME, cell-based, Macaca fascicularis, Hepatocyte
# [6] = Drug level in CD-1 mouse hepatocytes treated with 1-(6-(4-fluorobenzyl)-3,3-dimethyl-2,3-dihydro-1H-pyrrolo[3,2-b]pyridin-1-yl)-2-((2R,5R)-5-methyl-2-(((R)-3-methylmorpholino)methyl)piperazin-1-yl)ethanone at 10 uM up to 90 mins by LC-MS analysis; type: ADME, cell-based, Hepatocyte
# [7] = Drug level in human hepatocytes treated with 1-(6-(4-fluorobenzyl)-3,3-dimethyl-2,3-dihydro-1H-pyrrolo[3,2-b]pyridin-1-yl)-2-((2R,5R)-5-methyl-2-(((R)-3-methylmorpholino)methyl)piperazin-1-yl)ethanone at 10 uM up to 90 mins by LC-MS analysis; type: ADME, cell-based, Hepatocyte
# [8] = Cmax in cynomolgus monkey at 5 mg/kg, po by UHPLC and ESI mass spectrometry; type: ADME, organism-based, Macaca fascicularis; set-up: dose 5 mg/kg, route oral; settings: in vivo
# in vivo [9] = settings: cynomolgus monkey, po, 60 mg/kg
# [10] = Plasma clearance in Balb/c mouse at 5 mg/kg, iv or 10 mg/kg, po by UHPLC and ESI mass spectrometry; type: ADME, organism-based
# [11] = Volume of distribution at steady state in Balb/c mouse at 5 mg/kg, iv or 10 mg/kg, po by UHPLC and ESI mass spectrometry; type: ADME, organism-based; settings: in vivo, read-out: Vdss
# [12] = Plasma clearance in Sprague-Dawley rat at 5 mg/kg, iv or 10 mg/kg, po by UHPLC and ESI mass spectrometry; type: ADME, organism-based
# in vivo [13] = settings: cynomolgus monkey, plasma, iv, 1 mg/kg
# Cynomolgus monkey [14] = assay: Cardiotoxicity in cynomolgus monkey assessed as effect on QT interval at 100 mg/kg, po administered as single dose; type: toxicity, organism-based, Macaca fascicularis; settings: in vivo
# [15] = Cmax in Sprague-Dawley rat at 10 mg/kg, po by UHPLC and ESI mass spectrometry; type: ADME, organism-based; set-up: dose 10 mg/kg, route oral; settings: in vivo
# [16] = Oral bioavailability in Sprague-Dawley rat at 10 mg/kg by UHPLC and ESI mass spectrometry; type: ADME, organism-based; settings: in vivo
# [17] = Cmax in Balb/c mouse at 10 mg/kg, po by UHPLC and ESI mass spectrometry; type: ADME, organism-based; set-up: dose 10 mg/kg, route oral; settings: in vivo
# [18] = Volume of distribution at steady state in Sprague-Dawley rat at 5 mg/kg, iv or 10 mg/kg, po by UHPLC and ESI mass spectrometry; type: ADME, organism-based; settings: in vivo, read-out: Vdss
# in vivo [19] = settings: cynomolgus monkey, iv, 1 mg/kg
# [20] = Plasma clearance in Sprague-Dawley rat at 1 mg/kg, iv or 5 mg/kg, po by UHPLC and ESI mass spectrometry; type: ADME, organism-based
# [21] = Drug metabolism in Sprague-Dawley rat hepatocytes assessed as 2-((R)-1-amino-3-((R)-3-methylmorpholino)propan-2-ylamino)-1-(6-(4-fluorobenzyl)-3,3-dimethyl-2,3-dihydro-1H-pyrrolo[3,2-b]pyridin-1-yl)ethanone formation at 10 uM up to 90 mins by LC-MS analysis; type: ADME, cell-based, Hepatocyte
# [22] = Drug metabolism in CD-1 mouse hepatocytes assessed as oxidation metabolite formation at 10 uM up to 90 mins by LC-MS analysis; type: ADME, cell-based, Hepatocyte
# [23] = Drug metabolism in Sprague-Dawley rat hepatocytes assessed as 1-(6-(4-fluorobenzyl)-3,3-dimethyl-2,3-dihydro-1H-pyrrolo[3,2-b]pyridin-1-yl)-2-((2S,5R)-2-((2-hydroxyethylamino)methyl)-5-methylpiperazin-1-yl)ethanone formation at 10 uM up to 90 mins by LC-MS analysis; type: ADME, cell-based, Hepatocyte
# [24] = Cmax in Sprague-Dawley rat at 5 mg/kg, po by UHPLC and ESI mass spectrometry; type: ADME, organism-based; set-up: dose 5 mg/kg, route oral; settings: in vivo
# [25] = Oral bioavailability in Sprague-Dawley rat at 5 mg/kg by UHPLC and ESI mass spectrometry; type: ADME, organism-based; settings: in vivo
# [26] = Drug metabolism in Sprague-Dawley rat hepatocytes assessed as 2-((2S,5R)-2-(aminomethyl)-5-methylpiperazin-1-yl)-1-(6-(4-fluorobenzyl)-3,3-dimethyl-2,3-dihydro-1H-pyrrolo[3,2-b]pyridin-1-yl)ethanone formation at 10 uM up to 90 mins by LC-MS analysis; type: ADME, cell-based, Hepatocyte
# [27] = Drug metabolism in cynomolgus monkey hepatocytes assessed as oxidation metabolite formation at 10 uM up to 90 mins by LC-MS analysis; type: ADME, cell-based, Macaca fascicularis, Hepatocyte
# Cynomolgus monkey [28] = assay: Plasma clearance in cynomolgus monkey at 1 mg/kg, iv or 5 mg/kg, po relative to liver blood flow; type: ADME, organism-based, Macaca fascicularis; settings: in vivo
# [29] = Stability in cynomolgus monkey liver microsomes at 10 uM up to 90 mins in presence of NADPH by LC/MS analysis; type: ADME, Macaca fascicularis, microsome
# [30] = Volume of distribution at steady state in Sprague-Dawley rat at 1 mg/kg, iv or 5 mg/kg, po by UHPLC and ESI mass spectrometry; type: ADME, organism-based; settings: in vivo, read-out: Vdss
# [31] = Drug metabolism in Sprague-Dawley rat hepatocytes assessed as oxidation metabolite formation at 10 uM up to 90 mins by LC-MS analysis; type: ADME, cell-based, Hepatocyte
# [32] = Permeability in human Caco2 cells at 10 uM after 1 hr; type: ADME, cell-based; settings: Caco-2, read-out: permeability
# [33] = Drug metabolism in human hepatocytes assessed as oxidation metabolite formation at 10 uM up to 90 mins by LC-MS analysis; type: ADME, cell-based, Hepatocyte
# Chain of hERG (KCNH2) (Q12809 whole entry): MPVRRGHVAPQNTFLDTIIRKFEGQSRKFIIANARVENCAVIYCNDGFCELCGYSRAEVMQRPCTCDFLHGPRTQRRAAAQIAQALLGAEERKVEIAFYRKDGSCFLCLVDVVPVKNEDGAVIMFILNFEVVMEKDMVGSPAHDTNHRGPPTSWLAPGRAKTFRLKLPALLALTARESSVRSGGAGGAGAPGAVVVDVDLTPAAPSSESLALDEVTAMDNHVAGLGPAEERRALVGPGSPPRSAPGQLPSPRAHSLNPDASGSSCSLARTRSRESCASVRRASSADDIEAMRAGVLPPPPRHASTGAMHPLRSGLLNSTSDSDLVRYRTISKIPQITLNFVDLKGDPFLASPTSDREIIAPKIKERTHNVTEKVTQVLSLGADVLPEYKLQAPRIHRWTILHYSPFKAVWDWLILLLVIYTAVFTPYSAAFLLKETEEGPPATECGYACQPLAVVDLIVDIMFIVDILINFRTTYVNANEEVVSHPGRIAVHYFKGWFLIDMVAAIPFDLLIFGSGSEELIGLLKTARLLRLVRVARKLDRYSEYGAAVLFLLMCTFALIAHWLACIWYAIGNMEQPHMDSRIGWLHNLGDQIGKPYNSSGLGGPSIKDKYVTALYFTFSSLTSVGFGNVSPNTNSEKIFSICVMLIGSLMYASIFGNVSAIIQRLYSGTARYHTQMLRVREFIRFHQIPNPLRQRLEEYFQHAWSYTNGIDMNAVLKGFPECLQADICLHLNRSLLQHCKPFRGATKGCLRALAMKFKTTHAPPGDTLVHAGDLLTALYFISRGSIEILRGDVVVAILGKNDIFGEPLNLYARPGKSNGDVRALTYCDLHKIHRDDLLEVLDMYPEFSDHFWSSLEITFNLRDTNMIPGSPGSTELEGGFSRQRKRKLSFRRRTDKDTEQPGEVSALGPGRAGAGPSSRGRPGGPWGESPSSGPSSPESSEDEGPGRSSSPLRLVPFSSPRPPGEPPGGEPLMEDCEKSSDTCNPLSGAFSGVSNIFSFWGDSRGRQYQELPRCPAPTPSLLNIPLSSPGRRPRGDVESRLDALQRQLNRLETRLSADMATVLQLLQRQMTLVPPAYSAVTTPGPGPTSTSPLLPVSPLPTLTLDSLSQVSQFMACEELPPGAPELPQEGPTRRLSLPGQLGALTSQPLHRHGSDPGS
smiles,measurement,setting,value
C[C@@H]1CN(CC(=O)N2CC(C)(C)c3ncc([C@H](O)c4ccc(F)cc4)cc32)[C@@H](CN2[C@H](C)COC[C@H]2C)CN1,bioavailability,in vivo [1],13%
same,bioavailability,[2],31%
C[C@@H]1CN(CC(=O)N2CC(C)(C)c3nnc(Cc4ccc(F)cc4F)cc32)[C@@H](CN2Cc3ccc(F)cc3C2=O)CN1,chromatographic logD,[3],3.1
same,"inhibition at 10 min, 30 µM",hERG (KCNH2),18%
same,IC50,MDA-MB-231,2.9 nM
same,"half-life at 40 min, 1 µM",CYP3A4,41 min
C[C@@H]1CN(CC(=O)N2CC(C)(C)c3nc(CO)c(Cc4ccc(F)cc4)cc32)[C@@H](CN2CCOC[C@H]2C)CN1.Cl.Cl,Drug uptake,[4],Active
C[C@@H]1CN(CC(=O)N2CC(C)(C)c3ncc(Cc4ccc(F)cc4)cc32)[C@@H](CN)CN1,Drug uptake,[5],Active
same,Drug uptake,[6],Active
same,Drug uptake,[7],Active
C[C@@H]1CN(CC(=O)N2CC(C)(C)c3nnc(Cc4ccc(F)cc4F)cc32)[C@@H](CN2Cc3ccc(C#N)cc3C2=O)CN1,chromatographic logD,[3],2.9
same,"inhibition at 10 min, 30 µM",hERG (KCNH2),18%
same,IC50,MDA-MB-231,14 nM
same,"half-life at 40 min, 1 µM",CYP3A4,34 min
C[C@@H]1CN(CC(=O)N2CC(C)(C)c3nnc(Cc4ccc(F)cc4F)cc32)[C@@H](CN2Cc3cc(C#N)ccc3C2=O)CN1,chromatographic logD,[3],3
same,"inhibition at 10 min, 30 µM",hERG (KCNH2),19%
same,IC50,MDA-MB-231,5.2 nM
same,"half-life at 40 min, 1 µM",CYP3A4,42 min
C[C@@H]1CN(CC(=O)N2CC(C)(C)c3nc(CO)c(Cc4ccc(F)cc4)cc32)[C@@H](CN2CCOC[C@H]2C)CN1 [ASTX-660],Cmax,[8],137 ng/mL
same,bioavailability,in vivo [9],50%
same,clearance,[10],41 mL/min/kg
same,Vd,[11],2.7 L/kg
same,clearance,[12],38 mL/min/kg
same,chromatographic logD,[3],3.1
same,clearance,in vivo [13],16 mL/min/kg
same,Activity,Cynomolgus monkey [14],Non-Toxic
same,bioavailability,in vivo [1],12%
same,Cmax,[15],117 ng/mL
same,bioavailability,[16],29%
same,Cmax,[17],433 ng/mL
same,Vd,[18],9.3 L/kg
same,Vd,in vivo [19],6 L/kg
same,bioavailability,[2],34%
C[C@@H]1CN(CC(=O)N2CC(C)(C)c3ncc(Cc4ccc(F)cc4)cc32)[C@@H](CN2CCOC[C@H]2C)CN1,Cmax,[8],22 ng/mL
same,clearance,[20],26 mL/min/kg
same,Drug metabolism,[21],Metabolite_Notdetected
same,clearance,in vivo [13],17 mL/min/kg
same,Drug metabolism,[22],Metabolite_Detected
same,Drug metabolism,[23],Metabolite_Notdetected
same,Cmax,[24],47 ng/mL
same,bioavailability,in vivo [1],2%
same,bioavailability,[25],24%
same,Drug metabolism,[26],Metabolite_Notdetected
same,Drug metabolism,[27],Metabolite_Detected
same,CL,Cynomolgus monkey [28],< 50%
same,Stability,[29],Stable
same,Vd,[30],12 L/kg
same,Drug metabolism,[31],Metabolite_Notdetected
same,"Papp at 1 h, 10 µM",[32],1.1 ×10⁻⁶ cm/s
same,Vd,in vivo [19],3.7 L/kg
same,Drug metabolism,[33],Metabolite_Detected
C[C@@H]1CN(CC(=O)N2CC(C)(C)c3nc(CO)c(Cc4ccc(F)cc4)cc32)[C@@H](CN2[C@H](C)COC[C@H]2C)CN1,chromatographic logD,[3],3.5
C[C@@H]1CN(CC(=O)N2CC(C)(C)c3nnc(Cc4ccc(F)cc4)cc32)[C@@H](CN2Cc3ccccc3C2=O)CN1,"inhibition at 10 min, 30 µM",hERG (KCNH2),12%
same,IC50,MDA-MB-231,16 nM
same,"half-life at 40 min, 1 µM",CYP3A4,38 min
C[C@@H]1CN(CC(=O)N2CC(C)(C)c3[nH]c(=O)c(Cc4ccc(F)cc4)cc32)[C@@H](CN2[C@H](C)COC[C@H]2C)CN1,chromatographic logD,[3],2.7

# — ChEMBL document CHEMBL4152349, “A Fragment-Derived Clinical Candidate for Antagonism of X-Linked and Cellular Inhibitor of Apoptosis Proteins: 1-(6-[(4-Fluorophenyl)methyl]-5-(hydroxymethyl)-3,3-dimethyl-1 H,2 H,3 H-pyrrolo[3,2- b]pyridin-1-yl)-2-[(2 R,5 …” (J Med Chem, 2018)
